Measurements taken from PubChem BioAssay AID246 (DTP/NCI, 2004).
Values joined by “and” are separate entries in the source; they are usually repeats but may differ in a detail not shown here. Identical values can stand only once. Inconclusive results and toxic doses are left out.

Tested on: BDF1 mice, P1081 chloroleukemia ip, survival T/C
Experiment: NCI In Vivo Anticancer Drug Screen. Data for tumor model P1081 Chloroleukemia (intraperitoneal) in B6D2F1 (BDF1) mice
Conditions: endpoint: mean survival time, higher = longer survival
Method: The antitumor activity of compounds was measured in mice bearing transplantable tumors. Survival or tumor size were measured and the results are expressed as the measurement made in the treated group (T) divided by the measurement made in the vehicle treated control group (C). The tumor model used in this assay is P1081 Chloroleukemia (intraperitoneal) in B6D2F1 (BDF1) mice

[1] = dose: 6.25 mg/kg/injection, schedule: Q01DX010 (ip), vehicle: saline
[2] = dose: 12.5 mg/kg/injection, schedule: Q01DX010 (ip), vehicle: saline
[3] = dose: 25.0 mg/kg/injection, schedule: Q01DX010 (ip), vehicle: saline
[4] = dose: 12.5 mg/kg/injection, schedule: Q01DX Z (ip), vehicle: carboxymethylcellulose (CMC)
[5] = dose: 25.0 mg/kg/injection, schedule: Q01DX Z (ip), vehicle: carboxymethylcellulose (CMC)
[6] = dose: 37.5 mg/kg/injection, schedule: Q01DX010 (ip), vehicle: saline
[7] = dose: 50.0 mg/kg/injection, schedule: Q01DX Z (ip), vehicle: carboxymethylcellulose (CMC)
[8] = dose: 75.0 mg/kg/injection, schedule: Q01DX010 (ip), vehicle: saline
[9] = dose: 15.0 mg/kg/injection, schedule: Q01DX010 (ip), vehicle: saline
[10] = dose: 30.0 mg/kg/injection, schedule: Q01DX010 (ip), vehicle: saline
[11] = dose: 60.0 mg/kg/injection, schedule: Q01DX010 (ip), vehicle: saline
[12] = dose: 50.0 mg/kg/injection, schedule: Q01DX010 (ip), vehicle: saline
[13] = dose: 125.0 mg/kg/injection, schedule: Q01DX010 (ip), vehicle: saline

## [I][Hg][CH2]C1COC([CH2][Hg][I])CO1 (centres undefined)
[1]
  T/C: 110 % of control
dose: 7.5 mg/kg/injection, schedule: Q01DX Z (ip), vehicle: carboxymethylcellulose (CMC)
  T/C: 97 % of control
[2]
  T/C: 95 % of control
dose: 15.0 mg/kg/injection, schedule: Q01DX Z (ip), vehicle: carboxymethylcellulose (CMC)
  T/C: 119 % of control
[3]
  T/C: 90 % of control
dose: 60.0 mg/kg/injection, schedule: Q01DX Z (ip), vehicle: carboxymethylcellulose (CMC)
  T/C: 88 % of control and 103 % of control

## CS(=O)(=O)OCCCl
[4]
  T/C: 98 % of control
dose: 18.8 mg/kg/injection, schedule: Q01DX010 (ip), vehicle: saline
  T/C: 105 % of control and 95 % of control
[5]
  T/C: 110 % of control
[6]
  T/C: 110 % of control and 100 % of control
[7]
  T/C: 98 % of control
[8]
  T/C: 105 % of control and 90 % of control
dose: 100.0 mg/kg/injection, schedule: Q01DX Z (ip), vehicle: carboxymethylcellulose (CMC)
  T/C: 94 % of control
dose: 2000.0 mg/kg/injection, schedule: Q01DX Z (ip), vehicle: carboxymethylcellulose (CMC)
  T/C: 103 % of control

## O=C(C[N+]12CN3CN(CN(C3)C1)C2)c1ccc(Cl)cc1
[6]
  T/C: 113 % of control and 98 % of control
[8]
  T/C: 107 % of control and 112 % of control
dose: 150.0 mg/kg/injection, schedule: Q01DX010 (ip), vehicle: saline
  T/C: 112 % of control and 118 % of control
dose: 300.0 mg/kg/injection, schedule: Q01DX010 (ip), vehicle: saline
  T/C: 110 % of control and 114 % of control

## COC12C(COC(N)=O)C3=C(C(=O)C(C)=C(N)C3=O)N1CC1C2N1C (centres undefined)
dose: 0.63 mg/kg/injection, schedule: Q01DX Z (ip), vehicle: carboxymethylcellulose (CMC)
  T/C: 123 % of control
dose: 1.25 mg/kg/injection, schedule: Q01DX Z (ip), vehicle: carboxymethylcellulose (CMC)
  T/C: 107 % of control
dose: 2.5 mg/kg/injection, schedule: Q01DX Z (ip), vehicle: carboxymethylcellulose (CMC)
  T/C: 112 % of control
dose: 5.0 mg/kg/injection, schedule: Q01DX Z (ip), vehicle: carboxymethylcellulose (CMC)
  T/C: 152 % of control

## N#CCSc1ncnc2nc[nH]c12
dose: 6.25 mg/kg/injection, schedule: Q01DX Z (ip), vehicle: carboxymethylcellulose (CMC)
  T/C: 119 % of control
[9]
  T/C: 110 % of control
[10]
  T/C: 105 % of control and 95 % of control
[7]
  T/C: 101 % of control
[11]
  T/C: 110 % of control

## CN(C)[C@@H]1C(=O)C(C(N)=O)=C(O)[C@@]2(O)C(=O)C3=C(O)c4c(O)cccc4C[C@H]3C[C@@H]12
dose: 7.5 mg/kg/injection, schedule: Q01DX010 (ip), vehicle: saline
  T/C: 100 % of control
[9]
  T/C: 90 % of control and 100 % of control
[10]
  T/C: 100 % of control and 105 % of control
[11]
  T/C: 111 % of control

## CC(=O)O[C@]1(C(C)=O)CC[C@H]2[C@@H]3C[C@H](C)C4=CC(=O)C=C[C@]4(C)[C@@]3(F)[C@@H](O)C[C@@]21C
dose: 2.5 mg/kg/injection, schedule: Q01DX Z (sc), vehicle: steriod suspending solution
  T/C: 100 % of control
dose: 5.0 mg/kg/injection, schedule: Q01DX Z (sc), vehicle: steriod suspending solution
  T/C: 108 % of control
dose: 10.0 mg/kg/injection, schedule: Q01DX Z (sc), vehicle: steriod suspending solution
  T/C: 107 % of control
dose: 12.5 mg/kg/injection, schedule: Q01DX010 (sc), vehicle: steriod suspending solution
  T/C: 105 % of control and 100 % of control
dose: 20.0 mg/kg/injection, schedule: Q01DX Z (sc), vehicle: steriod suspending solution
  T/C: 108 % of control
dose: 25.0 mg/kg/injection, schedule: Q01DX010 (sc), vehicle: steriod suspending solution
  T/C: 100 % of control
dose: 40.0 mg/kg/injection, schedule: Q01DX Z (sc), vehicle: steriod suspending solution
  T/C: 116 % of control
dose: 50.0 mg/kg/injection, schedule: Q01DX010 (sc), vehicle: steriod suspending solution
  T/C: 90 % of control and 95 % of control
dose: 100.0 mg/kg/injection, schedule: Q01DX010 (sc), vehicle: steriod suspending solution
  T/C: 90 % of control and 100 % of control
dose: 160.0 mg/kg/injection, schedule: Q01DX Z (sc), vehicle: steriod suspending solution
  T/C: 105 % of control
dose: 320.0 mg/kg/injection, schedule: Q01DX Z (sc), vehicle: steriod suspending solution
  T/C: 93 % of control

## CCN(CC)CCNc1ccc(C)c2sc3ccccc3c(=O)c12
dose: 1.56 mg/kg/injection, schedule: Q01DX Z (ip), vehicle: methylcellulose (MC)
  T/C: 87 % of control
dose: 6.25 mg/kg/injection, schedule: Q01DX Z (ip), vehicle: methylcellulose (MC)
  T/C: 88 % of control
dose: 6.3 mg/kg/injection, schedule: Q01DX Z (ip), vehicle: methylcellulose (MC)
  T/C: 90 % of control
dose: 12.5 mg/kg/injection, schedule: Q01DX Z (ip), vehicle: methylcellulose (MC)
  T/C: 91 % of control
[3]
  T/C: 110 % of control and 122 % of control
dose: 25.0 mg/kg/injection, schedule: Q01DX Z (ip), vehicle: methylcellulose (MC)
  T/C: 95 % of control
[12]
  T/C: 150 % of control
dose: 50.0 mg/kg/injection, schedule: Q01DX Z (ip), vehicle: methylcellulose (MC)
  T/C: 96 % of control
dose: 100.0 mg/kg/injection, schedule: Q01DX010 (ip), vehicle: saline
  T/C: 122 % of control and 95 % of control
dose: 100.0 mg/kg/injection, schedule: Q01DX Z (ip), vehicle: methylcellulose (MC)
  T/C: 101 % of control

## CCCCNc1ncnc2c1cnn2C
dose: 16.0 mg/kg/injection, schedule: Q01DX Z (ip), vehicle: carboxymethylcellulose (CMC)
  T/C: 101 % of control
dose: 31.0 mg/kg/injection, schedule: Q01DX Z (ip), vehicle: carboxymethylcellulose (CMC)
  T/C: 117 % of control
dose: 31.25 mg/kg/injection, schedule: Q01DX010 (ip), vehicle: saline
  T/C: 95 % of control and 100 % of control
dose: 62.5 mg/kg/injection, schedule: Q01DX010 (ip), vehicle: saline
  T/C: 95 % of control and 100 % of control
dose: 62.5 mg/kg/injection, schedule: Q01DX Z (ip), vehicle: carboxymethylcellulose (CMC)
  T/C: 113 % of control
[13]
  T/C: 90 % of control and 105 % of control

## CCOC(N)=O
[13]
  T/C: 110 % of control and 100 % of control
dose: 125.0 mg/kg/injection, schedule: Q01DX Z (ip), vehicle: saline
  T/C: 95 % of control and 102 % of control
dose: 250.0 mg/kg/injection, schedule: Q01DX010 (ip), vehicle: saline
  T/C: 90 % of control and 100 % of control
dose: 250.0 mg/kg/injection, schedule: Q01DX Z (ip), vehicle: saline
  T/C: 100 % of control and 101 % of control
dose: 500.0 mg/kg/injection, schedule: Q01DX010 (ip), vehicle: saline
  T/C: 90 % of control and 100 % of control
dose: 500.0 mg/kg/injection, schedule: Q01DX Z (ip), vehicle: saline
  T/C: 92 % of control

## COc1cc(-c2ccc(Nc3ccccc3C(=O)O)c(OC)c2)ccc1Nc1ccccc1C(=O)O
[2]
  T/C: 116 % of control
[3]
  T/C: 122 % of control

## CC[n+]1c(-c2ccccc2)c2cc(N)ccc2c2ccc(N)cc21
dose: 2.5 mg/kg/injection, schedule: Q01DX010 (ip), vehicle: saline
  T/C: 165 % of control and 222 % of control
dose: 5.0 mg/kg/injection, schedule: Q01DX010 (ip), vehicle: saline
  T/C: 190 % of control and 333 % of control
dose: 20.0 mg/kg/injection, schedule: Q01DX010 (ip), vehicle: saline
  T/C: 100 % of control

## COS(C)(=O)=O
dose: 1.6 mg/kg/injection, schedule: Q01DX Z (ip), vehicle: water
  T/C: 94 % of control
dose: 3.1 mg/kg/injection, schedule: Q01DX Z (ip), vehicle: water
  T/C: 99 % of control
dose: 6.25 mg/kg/injection, schedule: Q01DX Z (ip), vehicle: water
  T/C: 120 % of control and 103 % of control
dose: 12.5 mg/kg/injection, schedule: Q01DX Z (ip), vehicle: water
  T/C: 109 % of control
[3]
  T/C: 95 % of control
dose: 25.0 mg/kg/injection, schedule: Q01DX Z (ip), vehicle: water
  T/C: 112 % of control and 98 % of control
[12]
  T/C: 115 % of control
dose: 50.0 mg/kg/injection, schedule: Q01DX Z (ip), vehicle: water
  T/C: 90 % of control
dose: 100.0 mg/kg/injection, schedule: Q01DX Z (ip), vehicle: water
  T/C: 91 % of control

## CN(Cc1cnc2nc(N)nc(N)c2n1)c1c(Cl)cc(C(=O)NC(CCC(=O)O)C(=O)O)cc1Cl (centres undefined)
[4]
  T/C: 101 % of control
[5]
  T/C: 102 % of control

## O=[n+]1c2c(n([O-])c3ccccc31)-c1cccc3cccc-2c13
[1]
  T/C: 100 % of control
[2]
  T/C: 100 % of control
[3]
  T/C: 88 % of control and 90 % of control
[12]
  T/C: 88 % of control and 90 % of control
